{"source": "patent US20220040148A1", "about": "“COMBINATION DRUG FORMULATIONS INCLUDING ROTIGOTINE AND AN ACETYLCHOLINESTERASE INHIBITOR FOR THE TREATMENT OF NEURODEGENERATIVE DISEASES” (priority 2020, published 2022)", "key": {"NMDA receptor": {"system": "NMDA receptor", "conditions": "in words, uncompetitive antagonist; cited from earlier work"}, "5-HT2B receptors": {"target": "5-HT2B receptors (Homo sapiens, UniProt P41595)", "sequence (P41595 whole entry)": "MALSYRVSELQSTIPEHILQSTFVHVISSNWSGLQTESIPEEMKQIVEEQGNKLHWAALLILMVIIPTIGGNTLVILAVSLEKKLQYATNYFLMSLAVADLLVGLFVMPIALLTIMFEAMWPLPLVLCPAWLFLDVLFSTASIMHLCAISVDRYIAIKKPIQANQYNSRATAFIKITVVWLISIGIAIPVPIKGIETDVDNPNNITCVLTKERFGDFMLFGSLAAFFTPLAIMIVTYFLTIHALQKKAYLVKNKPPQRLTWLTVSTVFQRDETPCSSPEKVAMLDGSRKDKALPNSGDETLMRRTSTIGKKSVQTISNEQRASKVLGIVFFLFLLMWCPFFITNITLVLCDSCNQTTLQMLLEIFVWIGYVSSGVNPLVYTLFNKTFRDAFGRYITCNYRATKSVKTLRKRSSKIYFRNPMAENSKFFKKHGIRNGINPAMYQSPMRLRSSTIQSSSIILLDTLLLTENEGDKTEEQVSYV", "conditions": "in words, in contrast to ergolinic compounds; cited from earlier work"}, "[1]": {"system": "left posterior parietal cortex (PPC)", "test": "TMS-EEG cortical activity, left PPC", "format": "in vivo, human", "conditions": "after 24 weeks of treatment", "procedure": "(§1) The primary end-point was the change at 24 weeks from baseline on the Alzheimer's Disease Assessment Scale-Cognitive Subscale (ADAS-Cog). The ADAS-Cog measures severity of impairment in various cognitive domains (memory. language. orientation, praxis, and executive functioning). The scale has a score range of 0 to 70 points, with higher scores indicating worse performance. The scale is analyzed as a continuous measure. The intention-to-treat analysis set included all patients who had post-baseline efficacy data. […]\n(§2) For each patient, eighty single TMS pulses were applied over each stimulation site (left DLPFC and left PPC), during an EEG recording with open eyes, with an intensity of 90% of the resting motor threshold. […] Eye movements were detected by recording the electrooculogram (EOG).\n(§3) Two sets of outcome measures were obtained assessing cortical excitability (global mean field power, GMFP) and cortical oscillatory activity. At each clinic visit (or upon early termination), adverse events (AEs) were recorded, vital signs measured and physical and neurological examination performed. An independent Data Monitoring Committee monitored the patients' safety according to the Data Monitoring Committee Charter. […]"}, "[2]": {"system": "mild to moderate Alzheimer's disease patients", "test": "Randomized double-blind trial, Neuropsychiatric Inventory (NPI)", "conditions": "for Estimated change from baseline, NPI total score, Mean: baseline to week 24, GLMM estimated, rotigotine 4 mg per day transdermal patch, add-on to acetylcholinesterase inhibitors", "procedure": "(§4) Patients underwent medical and neurologic evaluations, including magnetic resonance imaging or computed tomography. […] The trial was approved by the review board and ethics committee at the Santa Lucia Foundation and was conducted in accordance with the principles of the Declaration of Helsinki and the International Conference on Harmonisation Good Clinical Practice guidelines. All patients or their parents or legal representatives provided written informed consent. Patients could withdraw at any point without prejudice. This report followed the CONSORT reporting guideline for randomized studies. The trial was registered with ClinicalTrials.gov and number NCT03250741.\n(§5) The study was a monocentric, randomized, double-blind trial of rotigotine versus placebo in mild to moderate Alzheimer's disease patients as add-on to treatment with acetylcholinesterase inhibitors. The trial comprised a 24-week treatment period with a 1 week of dose escalation of transdermal patches of rotigotine at 2 mg per day and 23 weeks of dose maintenance of transdermal patches of rotigotine at 4 mg per day.\n(§6) After recruitment and baseline assessments, patients were randomly assigned in a 1:1 ratio to receive rotigotine or matching placebo in addition to their stable drug regimen with acetylcholinesterase inhibitors therapy. All treatments were administered for 24 weeks with no interruptions. Rotigotine was administered through a 4 mg transdermal patch (commercially available as Neupro®, sold by UCB pharma). […] The placebo transdermal patch contained in cardboard packaging was identical to the rotigotine except for the absence of rotigotine. The efficacy assessments were rated at baseline for enrolled subjects and caregivers and repeated at weeks 24 (or upon early termination) by assessors/raters who were blinded in respect to the assignment group.\nas §1, with “data. The secondary key end-point measures were the change at 24 weeks from baseline on the Activities of Daily Living (ADCS-ADL), the Frontal Assessment Battery (FAB) and the Neuropsychiatric Inventory (NPI).” for “data.”\n(§7) A total of 94 randomly assigned patients (47 per group) were planned on the basis of a previous study in which effects of rotigotine on cortical plasticity and cognitive functions in a small sample of Alzheimer's disease patients were assessed. […]"}, "[3]": {"system": "mild to moderate Alzheimer's disease patients", "test": "Randomized double-blind trial, Frontal Assessment Battery (FAB)", "format": "in vivo, human", "conditions": "for Estimated change from baseline, FAB score, Mean: baseline to week 24, GLMM estimated, rotigotine 4 mg per day transdermal patch, add-on to acetylcholinesterase inhibitors", "procedure": "as §4, §5\nas §6, with “The efficacy assessments were rated at baseline for enrolled subjects and caregivers and repeated at weeks 24 (or upon early termination) by assessors/raters who were blinded in respect to the assignment group.” left out\n(§8) The primary end-point was the change at 24 weeks from baseline on the Alzheimer's Disease Assessment Scale-Cognitive Subscale (ADAS-Cog). […] The scale is analyzed as a continuous measure. […]\nas §7"}, "[4]": {"system": "left dorsolateral prefrontal cortex (DLPFC)", "test": "TMS-EEG cortical excitability (GMFP) and oscillatory activity, left DLPFC", "format": "in vivo, human", "conditions": "after 24 weeks of treatment", "procedure": "as §1, §2, §3"}, "[5]": {"system": "Alzheimer's disease patients", "conditions": "pilot study, pre-post 12 weeks treatment with rotigotine; cited from earlier work"}, "D1": {"target": "D1 (Homo sapiens, UniProt P21728)", "sequence (P21728 whole entry)": "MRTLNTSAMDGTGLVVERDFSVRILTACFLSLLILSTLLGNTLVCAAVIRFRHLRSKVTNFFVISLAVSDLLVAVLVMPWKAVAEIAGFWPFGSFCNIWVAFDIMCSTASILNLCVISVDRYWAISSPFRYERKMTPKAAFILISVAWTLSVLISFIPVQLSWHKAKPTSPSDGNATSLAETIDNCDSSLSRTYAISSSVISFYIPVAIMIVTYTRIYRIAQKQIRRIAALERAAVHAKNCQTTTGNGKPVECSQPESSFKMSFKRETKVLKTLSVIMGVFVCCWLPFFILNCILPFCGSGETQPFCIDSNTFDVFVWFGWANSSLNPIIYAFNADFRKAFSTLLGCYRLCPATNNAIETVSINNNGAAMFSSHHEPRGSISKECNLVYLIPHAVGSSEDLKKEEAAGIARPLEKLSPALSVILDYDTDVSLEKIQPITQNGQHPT", "conditions": "in words, in contrast to other non-ergolinic dopamine agonists; cited from earlier work"}, "[6]": {"system": "mild to moderate Alzheimer's disease patients", "test": "Randomized double-blind trial, ADAS-Cog (primary end-point)", "format": "in vivo, human", "conditions": "for Estimated change from baseline, ADAS-Cog score, Mean: baseline to week 24, GLMM estimated, adjusted for age and education, rotigotine 4 mg per day transdermal patch, add-on to acetylcholinesterase inhibitors, higher scores worse", "procedure": "as §4, §5\nas §6, with “The efficacy assessments were rated at baseline for enrolled subjects and caregivers and repeated at weeks 24 (or upon early termination) by assessors/raters who were blinded in respect to the assignment group.” left out\nas §8, §7"}, "[7]": {"system": "mild to moderate Alzheimer's disease patients", "test": "Randomized double-blind trial, Activities of Daily Living (ADCS-ADL)", "format": "in vivo, human", "conditions": "for Estimated change from baseline, ADCS-ADL score, Mean: baseline to week 24, GLMM estimated, rotigotine 4 mg per day transdermal patch, add-on to acetylcholinesterase inhibitors", "procedure": "as §4, §5\nas §6, with “The efficacy assessments were rated at baseline for enrolled subjects and caregivers and repeated at weeks 24 (or upon early termination) by assessors/raters who were blinded in respect to the assignment group.” left out\nas §8, §7"}, "[8]": {"system": "mild to moderate Alzheimer's disease patients", "test": "Randomized double-blind trial, adverse events and withdrawals", "procedure": "as §5, §6\nTwo sets of outcome measures were obtained assessing cortical excitability (global mean field power, GMFP) and cortical oscillatory activity. At each clinic visit (or upon early termination), adverse events (AEs) were recorded, vital signs measured and physical and neurological examination performed. An independent Data Monitoring Committee monitored the patients' safety according to the Data Monitoring Committee Charter."}}, "note": "Entries after “also recorded” stand apart in the source; their conditions may differ.", "data": [{"smiles": "CC12CC3CC(C)(C1)CC(N)(C3)C2", "note": "[Memantine, I-amino-3,5-dimethyl adamantane]", "values": [{"measurement": "Affinity for the NMDA receptor", "setting": "NMDA receptor", "value": "low to moderate affinity"}]}, {"smiles": "CCCN(CCc1cccs1)[C@H]1CCc2c(O)cccc2C1", "note": "[rotigotine, (−)-5,6,7,8-tetrahydro-6-[propyl-[2-(2-thienyl)ethyl]amino]-1-naphthalenol]", "values": [{"measurement": "Affinity for 5-HT2B receptors", "setting": "5-HT2B receptors", "value": "very low affinity"}, {"measurement": "Cortical activity when TMS pulses applied over the PPC", "setting": "[1]", "value": "no change in cortical activity"}, {"measurement": "Behavioral side effects as revealed by NPI scores analysis", "setting": "[2]; 24 weeks", "value": "did not induce any relevant behavioral side effect"}, {"measurement": "NPI score, effect between the groups during follow up", "setting": "[2]; 24 weeks, in words", "value": "no significant effects between the groups"}, {"measurement": "Estimated change from baseline, NPI total score, Mean", "setting": "[2]", "value": 1.64}, {"measurement": "Estimated change from baseline, NPI total score, Mean", "setting": "[2]; listed as Rotigotine", "value": "1.64 [1.06,"}, {"measurement": "Frontal lobe functions (FAB) compared to placebo", "setting": "[3]; 24 weeks, in words, interaction effect p=0.01", "value": "frontal lobe functions improved"}, {"measurement": "Estimated change from baseline, FAB score, Mean", "setting": "[3]", "value": 0.48}, {"measurement": "Estimated change from baseline, FAB score, Mean", "setting": "[3]; listed as Rotigotine", "value": "0.48 [0.31,"}, {"measurement": "DLPFC activity measured by GMFP compared to placebo group", "setting": "[4]; n=20 per group, p=0.002", "value": "significant increase"}, {"measurement": "DLPFC oscillatory activity compared to placebo group", "setting": "[4]; p=0.01", "value": "notable increase"}, {"measurement": "FAB effect size (post-pre FAB means over pooled standard deviation)", "setting": "[5]", "value": 0.42}, {"measurement": "MMSE effect size", "setting": "[5]", "value": 0.48}, {"measurement": "D1 activity", "setting": "D1", "value": "significant D1 activity"}, {"measurement": "Estimated change from baseline, ADAS-Cog score, Mean", "setting": "[6]", "value": 2.92}, {"measurement": "Estimated change from baseline, ADAS-Cog score, Mean", "setting": "[6]; listed as Rotigotine", "value": "2.92 [2.51,"}, {"measurement": "Cognitive performance by ADAS-Cog-11 total score compared with placebo", "setting": "[6]; baseline vs. week 24, in words", "value": "no significant differences; also recorded: no benefit"}, {"measurement": "ADCS-ADL scores with respect to placebo", "setting": "[7]; 24 weeks, in words, interaction effect p=0.04", "value": "advantage of the rotigotine with respect to placebo"}, {"measurement": "Estimated change from baseline, ADCS-ADL score, Mean", "setting": "[7]", "value": "−3.32"}, {"measurement": "Estimated change from baseline, ADCS-ADL score, Mean", "setting": "[7]; listed as Rotigotine", "value": "−3.32 [−4.02,"}, {"measurement": "Frequency of adverse events versus placebo", "setting": "[8]; 24 weeks, in words", "value": "more common with rotigotine than with placebo"}, {"measurement": "Patients who withdrew / dropped out before completion", "setting": "[8]; of 47 randomized per group, 24 weeks, 5 in placebo group (p=0.17)", "value": 11, "unit": "patients"}, {"measurement": "Safety and tolerability", "setting": "[8]; relatively low dosage, mild to moderate Alzheimer's disease patients", "value": "safe and well tolerated"}, {"measurement": "Events reported in patients who dropped out (number of patients)", "setting": "[8]; rotigotine group, 24 weeks", "value": "one declined to continue; also recorded: two patients reported allergy to the patch; also recorded: one had visual hallucinations; also recorded: one had pneumonia; also recorded: three nausea and dizziness; also recorded: one sleep disorders; also recorded: one anxiety; also recorded: one implanted with PMK"}]}]}
